Test results as given in patent US7452388B2, “Compositions comprising dimeric or oligomeric ferrocenes” (Innospec Limited, priority 2000, dated 2008).
Like-named read-outs stand apart in the source and are kept apart here.

Tests used:
[1] = Solubility testing in toluene at −30° C.
Text: Solubility testing was undertaken using the estimate of Fe content from C/H/N analysis. […] This procedure assumes the products below to contain substantially only C, H and Fe. Masses of product(s) sufficient to provide the required concentration of iron as condensation products were weighed into screw-cap vials and made up to 10.00 g with toluene. The samples were capped, shaken or swirled until homogenous then sealed using Parafilm™. The vials were then kept in an ethylene glycol/water filled bath held at −30° C. and periodically inspected for the appearance of solids or separation of liquid phases. After at least one week solids were separated by rapid filtration and soluble products isolated by removal of solvent under vacuum. Following analysis of the solids, maximum and minimum solubilities were estimated from the mass balance.

[2] = Viscosity of 2.5 wt % iron solutions in toluene (Bohlin CVO rheometer); format: physicochemical; conditions: toluene solution at 2.5 wt % Fe
Protocol: Viscosities of 2.5 wt % iron solutions were determined using a Bohlin Instruments CVO rheometer using a 4° 40 mm cone and plate at shear rates of either 2 Pa or 0.5 Pa.

[3] = Fuel stability, in-house Test Method 1; conditions: additive 20 ppm iron
[4] = toluene, −30° C., at least one week

Molecule | Solubility at −30° C., 2.5 wt % Fe (appearance) [1] | Solubility at −30° C., 5.0 wt % Fe (appearance) [1] | Viscosity at −30° C. (mPas) [2] [mPas] | Solubility at −30° C., 2.5 wt % Fe (appearance) [1, 4] | further results
1,1-diferrocenylpentane [Compound 7] | Clear | Clear | 5.4 |  | 
Iron tris(2-ethylhexanoate) [Octanoate] |  |  |  |  | fuel stability (conclusion) [3]: markedly lower stability
1,1-diferrocenyl cyclohexane [Compound 11] |  |  | 4.8 | Clear | Solubility of Fe as product ([1]; toluene, −30° C.): ~4.9 wt %; Solubility at −30° C., 5.0 wt % Fe (appearance) [1, 4]: Powder
O=C1CCCC(=O)C1 [Compound 12, 1,3-Cyclohexanedione] | Clear | Crystals |  |  | Solubility of Fe as product [1]: 3.6 to 4.1 wt % by mass balance
1,1-diferrocenyl 2-ethylhexane [Compound 4] | Clear | Clear |  |  | 
CC(C)C([c-]1cccc1)[c-]1cccc1.[Fe+2].[Fe+2].c1cc[cH-]c1.c1cc[cH-]c1 [Compound 5, 1,1-diferrocenyl-2-methyl propane] |  |  |  | Clear | 
[Fe+2].[Fe+2].c1cc[cH-]c1.c1cc[cH-]c1.c1ccc(CC([c-]2cccc2)[c-]2cccc2)cc1 [Compound 9, 1,1-diferrocenyl phenyl methane] |  |  | 4.3 | Clear | Solubility at −30° C., 5.0 wt % Fe (appearance) [1, 4]: Clear
CC(=O)CCC(C)=O [Compound 15, Acetonyl acetone] | Powder | Powder |  |  | 
